Laboratory results published in US20240180817A1, “PLANT FERMENTED LIQUID, PLANT FERMENTED PRODUCT PRODUCED USING GLUCONOBACTER THAILANDICUS STRAIN AND USE THEREOF” (LG HOUSEHOLD & HEALTH CARE LTD., priority 2022, published 2024).

System: human keratinocyte HaCaT
Assay: Hyaluronic acid synthesis, Quantikine ELISA Hyaluronan
Assay type: cell-based
Settings: 30 ppb, 72 hours
Description: Samples were treated with human keratinocyte HaCaT for 72 hours at each concentration. Hyaluronic acid synthesis was compared with the control group (DMEM treatment containing 0% serum) using Quantikine ELISA Hyaluronan from R&D Systems to quantify the moisturizing ability.

CC1=C(/C=C/C(C)=C/C=C/C(C)=C/C(=O)O)C(C)(C)CCC1 [Retinoic acid]
Hyaluronic Acid Synthesis Ability: 18.6 % of control
